Assay results as given in US11414416B1, “Compounds and uses thereof” (Foghorn Therapeutics Inc., priority 2019, dated 2022).

Experiments:
Assay type in all cases: cell-based
[1] = test system: synovial sarcoma cell lines (SYO1, Yamato, HS-SY-II, and ASKA); assay: Growth of synovial sarcoma cell lines (confluency, crystal violet, colonies; Example 3); conditions: FIGS. 5-7, 1 μM in crystal violet assay
Procedure: (§1) Cells were treated with DMSO or the BRD9 degrader, Compound 1, at indicated concentrations, and proliferation was monitored from day 7 to day 14 by measuring confluency over time using an IncuCyte live cell analysis system (FIG. 5). Growth medium and compounds were refreshed every 3-4 days.
(§2) Cells were seeded into 12-well plates and treated with DMSO, 1 μM BRD9 inhibitor, Compound 2 (also known as BI-7273, see Martin et al, J Med Chem. 59(10):4462-4475 (2016); see structure of Compound 2 below), or 1 μM BRD9 degrader, Compound 1.
(§3) The number of cells was optimized for each cell line. Growth medium and compounds were refreshed every 3-5 days. SYO1, Yamato, A549, 293T and HS-SY-II cells were fixed and stained at day 11. ASKA cells were fixed and stained at day 23. Staining was done by incubation with crystal violet solution (0.5 g Crystal Violet, 27 ml 37% Formaldehyde, 100 mL 10×PBS, 10 mL Methanol, 863 dH20 to 1 L) for 30 min followed by 3× washes with water and drying the plates for at least 24 h at room temperature. Subsequently plates were scanned on an Odyssey CLx Imaging system (FIG. 6).
(§4) Cells were seeded into 96-well ultra low cluster plate (Costar, #7007) in 200 μL complete media and treated at day 2 with DMSO, Staurosporin, or BRD9 degarder, Compound 1, at indicated doses (FIG. 7). Media and compounds were changed every 5 d and cell colonies were imaged at day 14.

[2] = test system: non-synovial control cancer cell lines (293T, A549, G401); assay: Growth of non-synovial control cancer cell lines (Example 3); conditions: FIGS. 5-7
Procedure: as §1, §2, §3, §4

[3] = test system: synovial sarcoma cell lines (SYO1, HS-SY-II, and ASKA); assay: Growth of synovial sarcoma cell lines, crystal violet day 14 (Example 4)
Procedure: (§5) Procedure: Cells were seeded into 6-well or 12-well plates and were treated daily with a BRD9 degrader (Compound 1), a bromo-domain BRD9 binder (Compound 2), E3 ligase binder (lenalidomide), DMSO, or staurosporin (positive control for cell killing), at indicated concentrations. The number of cells was optimized for each cell line. Growth media was refreshed every 5 days. By day 14, medium was removed, cells were washed with PBS, and stained using 500 μL of 0.005% (w/v) crystal violet solution in 25% (v/v) methanol for at least 1 hour at room temperature. Subsequently plates were scanned on an Odyssey CLx Imaging system.

[4] = test system: non-synovial control cancer cell lines (RD, HCT116, and Calu6); assay: Growth of non-synovial control cancer cell lines, crystal violet day 14 (Example 4); conditions: treated daily, day 14, FIG. 9
Procedure: as §5

[5] = test system: SYO1 cells; assay: Cell cycle analysis, Click-iT Plus EdU Flow Cytometry Assay; conditions: SYO1, 200 nM or 1 μM, 8 or 13 days, compared to DMSO and lenalidomide
Procedure: (§6) Procedure: SYO1 cells were treated for 8 or 13 days with DMSO, a BRD9 degrader (Compound 1) at 200 nM or 1 μM, or an E3 ligase binder (lenalidomide) at 200 nM. Compounds were refreshed every 5 days. Cell cycle analysis was performed using the Click-iT™ Plus EdU Flow Cytometry Assay (Invitrogen). The apoptosis assay was performed using the Annexin V-FITC Apoptosis Detection Kit (Sigma A9210). Assays were performed according to the manufacturer's protocol.

[6] = test system: SYO1 cells; assay: Apoptosis assay, Annexin V-FITC Apoptosis Detection Kit; conditions: SYO1, 200 nM or 1 μM, 8 days, compared to DMSO controls
Procedure: as §6

Structure (SMILES): COc1cc(-c2cn(C)c(=O)c3cnccc23)cc(OC)c1CN(C)CC(=O)NCCOCCOCCNc1cccc2c1C(=O)N(C1CCC(=O)NC1=O)C2=O (stereo not shown) [Compound 1]
- inhibition of growth of synovial sarcoma cell lines [1]: inhibition of the growth of the cells
- inhibition of growth of non-synovial control cancer cell lines [2]: does not result in inhibition of the growth
- inhibition of growth of synovial sarcoma cell lines ([3]; SYO1, HS-SY-II, ASKA, treated daily, day 14, FIG. 8): inhibition of the growth of the cells
- overall comparison of growth inhibition in synovial cell lines ([3]; compared with Compound 2 and lenalidomide): most significant growth inhibition
- inhibition of growth of non-synovial control cancer cell lines [4]: did not result in inhibition of the growth
- numbers of cells in the S-phase of the cell cycle [5]: reduced numbers of cells in the S-phase
- numbers of early- and late-apoptotic cells [6]: increased numbers of early- and late-apoptotic cells
